From ChEMBL document CHEMBL5715954, “Silencing c-Myc translation as a therapeutic strategy through targeting PI3Kδ and CK1ε in hematological malignancies” (Blood, 2017)

Experiments:
Design in all cases: scale not given: the % may be the effect or the level left
[1] = biological target: T1, Ephrin type-A receptor 3 (Homo sapiens) (UniProt P29320); experiment: Inhibition of human EPHA3 assessed as enzyme activity at 1 uM using poly[Glu:Tyr] (4:1) as substrate preincubated for 20 mins followed by [gamma-33P]-ATP addition and measured after 120 mins by radiometric Hot-SpotSM Kinase assay relative to control
T1 sequence (whole entry): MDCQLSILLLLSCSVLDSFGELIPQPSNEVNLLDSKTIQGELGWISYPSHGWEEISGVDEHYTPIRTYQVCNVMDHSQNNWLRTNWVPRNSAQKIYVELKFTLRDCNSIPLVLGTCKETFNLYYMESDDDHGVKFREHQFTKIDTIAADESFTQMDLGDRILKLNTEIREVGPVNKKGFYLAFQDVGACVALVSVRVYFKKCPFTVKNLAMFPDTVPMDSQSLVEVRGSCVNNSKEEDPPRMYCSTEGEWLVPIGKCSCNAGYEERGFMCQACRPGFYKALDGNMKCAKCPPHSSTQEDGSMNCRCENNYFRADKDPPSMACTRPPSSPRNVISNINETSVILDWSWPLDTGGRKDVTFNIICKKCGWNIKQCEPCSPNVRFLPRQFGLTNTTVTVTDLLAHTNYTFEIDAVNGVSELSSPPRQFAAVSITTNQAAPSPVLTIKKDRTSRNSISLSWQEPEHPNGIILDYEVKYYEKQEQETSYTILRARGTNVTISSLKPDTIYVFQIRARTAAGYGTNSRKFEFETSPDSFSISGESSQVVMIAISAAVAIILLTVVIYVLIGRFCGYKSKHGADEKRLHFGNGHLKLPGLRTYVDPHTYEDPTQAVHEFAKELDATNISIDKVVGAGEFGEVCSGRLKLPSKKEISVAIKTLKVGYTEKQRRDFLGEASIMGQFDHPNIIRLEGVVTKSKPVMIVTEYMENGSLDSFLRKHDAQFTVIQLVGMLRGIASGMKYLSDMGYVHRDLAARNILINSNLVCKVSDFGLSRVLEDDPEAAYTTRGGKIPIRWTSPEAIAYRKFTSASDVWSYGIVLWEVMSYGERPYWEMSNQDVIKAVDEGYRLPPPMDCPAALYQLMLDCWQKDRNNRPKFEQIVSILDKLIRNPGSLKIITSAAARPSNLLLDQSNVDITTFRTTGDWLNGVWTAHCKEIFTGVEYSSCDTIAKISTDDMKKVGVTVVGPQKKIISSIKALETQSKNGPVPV

[2] = biological target: T2, Discoidin domain-containing receptor 2 (Homo sapiens) (UniProt Q16832); experiment: Inhibition of human DDR2 assessed as enzyme activity at 1 uM using KKSRGDYMTMQIG as substrate preincubated for 20 mins followed by [gamma-33P]-ATP addition and measured after 120 mins by radiometric Hot-SpotSM Kinase assay relative to control
T2 sequence (whole entry): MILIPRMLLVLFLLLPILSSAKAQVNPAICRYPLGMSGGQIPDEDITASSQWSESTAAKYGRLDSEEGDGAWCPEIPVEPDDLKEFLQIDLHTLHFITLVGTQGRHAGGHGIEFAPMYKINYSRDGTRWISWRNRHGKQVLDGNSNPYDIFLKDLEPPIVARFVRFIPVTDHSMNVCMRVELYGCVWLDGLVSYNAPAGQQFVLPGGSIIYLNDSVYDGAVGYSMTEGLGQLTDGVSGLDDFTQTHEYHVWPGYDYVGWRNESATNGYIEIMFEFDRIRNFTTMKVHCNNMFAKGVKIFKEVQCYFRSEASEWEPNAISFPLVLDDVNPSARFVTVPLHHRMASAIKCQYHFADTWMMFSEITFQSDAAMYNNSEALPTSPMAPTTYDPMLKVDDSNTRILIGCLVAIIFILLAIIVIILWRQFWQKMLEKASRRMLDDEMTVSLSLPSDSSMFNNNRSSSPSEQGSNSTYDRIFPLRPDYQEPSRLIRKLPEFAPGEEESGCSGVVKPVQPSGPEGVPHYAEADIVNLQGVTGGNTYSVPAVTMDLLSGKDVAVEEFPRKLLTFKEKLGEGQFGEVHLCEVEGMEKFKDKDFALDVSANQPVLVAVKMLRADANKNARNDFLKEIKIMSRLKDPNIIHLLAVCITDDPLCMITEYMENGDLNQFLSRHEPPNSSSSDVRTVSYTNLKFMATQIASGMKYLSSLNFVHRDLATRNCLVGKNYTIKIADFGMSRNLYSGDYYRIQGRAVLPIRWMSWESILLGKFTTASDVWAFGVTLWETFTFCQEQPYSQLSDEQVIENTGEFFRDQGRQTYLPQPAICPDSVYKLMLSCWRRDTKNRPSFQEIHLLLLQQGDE

[3] = biological target: MAP kinase-activated protein kinase 2 (Homo sapiens) (UniProt P49137); experiment: Inhibition of human MAPKAPK2 assessed as enzyme activity at 1 uM using KKLNRTLSVA as substrate preincubated for 20 mins followed by [gamma-33P]-ATP addition and measured after 120 mins by radiometric Hot-SpotSM Kinase assay relative to control
[4] = biological target: Mitogen-activated protein kinase kinase kinase 21 (Homo sapiens) (UniProt Q5TCX8); experiment: Inhibition of human MLK4 assessed as enzyme activity at 1 uM using MEK1 (K97R) as substrate preincubated for 20 mins followed by [gamma-33P]-ATP addition and measured after 120 mins by radiometric Hot-SpotSM Kinase assay relative to control
Mitogen-activated protein kinase kinase kinase 21 (Homo sapiens), sequence (Q5TCX8 whole entry): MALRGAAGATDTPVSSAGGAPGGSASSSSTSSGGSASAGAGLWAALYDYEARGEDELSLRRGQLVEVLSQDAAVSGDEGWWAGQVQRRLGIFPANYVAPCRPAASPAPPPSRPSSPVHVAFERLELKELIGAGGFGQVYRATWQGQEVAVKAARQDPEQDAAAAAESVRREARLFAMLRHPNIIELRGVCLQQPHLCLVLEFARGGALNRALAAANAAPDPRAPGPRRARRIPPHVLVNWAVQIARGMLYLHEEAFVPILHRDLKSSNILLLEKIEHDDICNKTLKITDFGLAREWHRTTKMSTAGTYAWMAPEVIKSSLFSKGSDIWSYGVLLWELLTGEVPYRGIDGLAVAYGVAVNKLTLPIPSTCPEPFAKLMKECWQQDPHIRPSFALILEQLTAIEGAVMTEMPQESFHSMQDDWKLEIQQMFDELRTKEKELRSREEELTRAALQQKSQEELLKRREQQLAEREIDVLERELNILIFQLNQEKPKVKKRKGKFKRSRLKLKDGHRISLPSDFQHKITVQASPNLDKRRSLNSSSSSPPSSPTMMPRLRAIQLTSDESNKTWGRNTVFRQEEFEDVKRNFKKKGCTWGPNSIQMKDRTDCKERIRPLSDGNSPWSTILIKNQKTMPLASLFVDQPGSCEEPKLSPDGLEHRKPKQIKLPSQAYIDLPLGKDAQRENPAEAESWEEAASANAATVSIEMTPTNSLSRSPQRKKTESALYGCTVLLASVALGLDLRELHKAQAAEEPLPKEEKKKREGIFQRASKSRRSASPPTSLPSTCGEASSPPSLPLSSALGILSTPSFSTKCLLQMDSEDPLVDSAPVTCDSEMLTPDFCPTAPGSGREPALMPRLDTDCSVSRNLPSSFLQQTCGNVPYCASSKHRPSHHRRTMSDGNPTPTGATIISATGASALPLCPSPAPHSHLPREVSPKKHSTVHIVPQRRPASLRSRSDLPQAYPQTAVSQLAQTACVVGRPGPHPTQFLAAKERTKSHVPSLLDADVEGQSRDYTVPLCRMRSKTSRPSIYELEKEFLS

MAP kinase-activated protein kinase 2 (Homo sapiens), sequence (P49137 whole entry, looked up): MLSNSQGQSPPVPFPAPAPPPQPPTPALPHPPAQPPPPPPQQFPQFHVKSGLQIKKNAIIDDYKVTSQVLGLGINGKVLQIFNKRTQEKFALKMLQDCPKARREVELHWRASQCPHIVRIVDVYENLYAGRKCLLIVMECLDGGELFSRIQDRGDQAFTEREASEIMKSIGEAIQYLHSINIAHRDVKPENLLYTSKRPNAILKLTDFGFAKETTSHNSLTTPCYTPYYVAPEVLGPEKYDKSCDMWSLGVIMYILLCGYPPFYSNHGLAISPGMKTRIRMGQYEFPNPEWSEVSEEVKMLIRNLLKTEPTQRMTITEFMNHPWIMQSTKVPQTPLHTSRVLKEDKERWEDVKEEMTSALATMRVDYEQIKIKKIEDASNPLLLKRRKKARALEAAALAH

| SMILES | Activity [1] [%] | Activity [2] [%] | Activity [3] [%] | Activity [4] [%] |
| --- | --- | --- | --- | --- |
| CC[C@H](Nc1ncnc2[nH]cnc12)c1nc2cccc(F)c2c(=O)n1-c1ccccc1 | 93.4 | 106 | 96.2 | 95.7 |
| C[C@H](Nc1ncnc2nc[nH]c12)c1cc2cccc(Cl)c2c(=O)n1-c1ccccc1 | 93.9 | 110 | 96.5 | 93.5 |
| CC(C)Oc1ccc(-c2nn([C@@H](C)c3oc4ccc(F)cc4c(=O)c3-c3cccc(F)c3)c3ncnc(N)c23)cc1F [UMBRALISIB] | 92.9 | 104 | 91.4 | 94.7 |
